Results taken from publication PMC4282894, “Effect of Bile Salt Hydrolase Inhibitors on a Bile Salt Hydrolase from Lactobacillus acidophilus” (Pathogens, 2014).
Structures can show the parent of a compound that is named as a salt.

Molecular target: T1, L. acidophilus BSH (rBSH; LaciP) (Lactobacillus acidophilus, UniProt A5HKP3)
T1 construct: full-length BSH (316 aa), C-terminal His tag, pET-21b(+), E. coli BL21(DE3), Ni-NTA; about 32 kDa on SDS-PAGE
Experiment: two-step ninhydrin BSH assay (glycine release from glycocholic acid)
Type: biochemical
Description: two-step ninhydrin BSH assay (glycine release from glycocholic acid) on L. acidophilus BSH (rBSH; LaciP)

T1 sequence (A5HKP3 whole entry): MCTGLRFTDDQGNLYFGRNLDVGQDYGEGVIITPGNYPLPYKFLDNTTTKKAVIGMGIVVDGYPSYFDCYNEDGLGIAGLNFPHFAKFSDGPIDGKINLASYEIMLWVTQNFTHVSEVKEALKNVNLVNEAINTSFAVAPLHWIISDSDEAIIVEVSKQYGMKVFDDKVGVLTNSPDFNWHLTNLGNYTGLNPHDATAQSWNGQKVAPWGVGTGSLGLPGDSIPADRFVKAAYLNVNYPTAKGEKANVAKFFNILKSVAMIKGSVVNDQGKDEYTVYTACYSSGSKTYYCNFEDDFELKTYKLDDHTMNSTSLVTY

Structure (SMILES) | inhibition at 2500 µM | further results
O=C(/C=C/c1ccc(O)c(O)c1)OCCc1ccccc1 [Caffeic Acid Phenethyl Ester] | 71.8% | 
CN(C)[C@@H]1C(O)=C(C(N)=O)C(=O)[C@@]2(O)C(O)=C3C(=O)c4c(O)ccc(Cl)c4[C@@H](O)[C@H]3C[C@@H]12 [Demeclocycline Hydrochloride] | 99.6% | 
C[C@H]1c2cccc(O)c2C(O)=C2C(=O)[C@]3(O)C(O)=C(C(N)=O)C(=O)[C@@H](N(C)C)[C@@H]3[C@@H](O)[C@@H]21 [Doxycycline Hydrochloride] | 98.3% | 
O=c1c(O)c(-c2ccc(O)c(O)c2)oc2c(O)c(O)cc(O)c12 [Gossypetin] | 96.1% | 
CN(C)[C@@H]1C(=O)C(C(N)=O)=C(O)[C@@]2(O)C(=O)C3=C(O)c4c(O)cccc4[C@@](C)(O)[C@H]3[C@H](O)[C@@H]12 [Oxytetracycline] | 99.6% | 
Cc1cc2nc3c(=O)[nH]c(=O)nc-3n(C[C@H](O)[C@H](O)[C@H](O)CO)c2cc1C [Riboflavin] |  | inhibition at 500 µM: 96.5%
O=[N+]([O-])c1cc([As](=O)(O)O)ccc1O [Roxarsone] |  | % Inhibition (2500 µM, 5 mM glycocholic acid, about 10 mM DTT, 0.1 M sodium phosphate pH 6.0, 37 °C, 30 min preincubation): 48.6%

More lines, main results first:

inhibition at 2500 µM | Structure (SMILES) | further results
52.8% | O=C(O[C@@H]1Cc2c(O)cc(O)cc2O[C@@H]1c1ccc(O)c(O)c1)c1cc(O)c(O)c(O)c1 [Epicatechin monogallate] | 
26.8% | CCC[C@@H]1C[C@@H](C(=O)N[C@@H]([C@H]2O[C@H](SC)[C@H](O)[C@@H](O)[C@H]2O)[C@@H](C)O)N(C)C1 [Lincomycin] | 
97.9% | CC1=CC(=O)c2ccccc2C1=O [Menadione] | 
99.2% | C=C1c2cccc(O)c2C(=O)C2=C(O)[C@]3(O)C(=O)C(C(N)=O)=C(O)[C@@H](N(C)C)[C@@H]3[C@@H](O)[C@H]12 [Methacycline Hydrochloride] | 
36.1% | O=c1c(O)cccc2cc(O)c(O)c(O)c12 [Purpurogallin] | 
